Data: ChEMBL document CHEMBL3611994, “Discovery of 4-benzoylamino-N-(prop-2-yn-1-yl)benzamides as novel microRNA-21 inhibitors” (Bioorg Med Chem, 2015)
Activity calls are given as the source filed them. The calls are words filed in the database; no cut-off is given here.

Assays:
[1] = tested on: Nucleic Acid; experiment: Inhibition of microRNA-21 in human HeLa cells assessed as reduction in microRNA-21 expression at 10 uM incubated for 24 hrs by stem-loop RT-PCR method; type: cell-based
[2] = tested on: Nucleic Acid; experiment: Inhibition of microRNA-21 in human HeLa cells assessed as increase in PDCD4 protein expression at 10 uM incubated for 48 hrs by Western blot method; type: cell-based
[3] = tested on: Nucleic Acid; experiment: Inhibition of microRNA-195 in human HeLa cells assessed as reduction in microRNA-21 expression at 10 uM incubated for 24 hrs by RT-qPCR method; type: cell-based
[4] = tested on: HeLa; experiment: Effect on universal miRNA biosynthesis pathway-related gene expression in human HeLa assessed as DGCR8 gene expression at 10 uM incubated for 24 hrs by RT-qPCR method; type: cell-based
[5] = tested on: Nucleic Acid; experiment: Inhibition of microRNA-143 in human HeLa cells assessed as reduction in microRNA-21 expression at 10 uM incubated for 24 hrs by RT-qPCR method; type: cell-based
[6] = tested on: Nucleic Acid; experiment: Inhibition of microRNA-133 in human HeLa cells assessed as reduction in microRNA-21 expression at 10 uM incubated for 24 hrs by RT-qPCR method; type: cell-based
[7] = tested on: U-87 MG; experiment: Inhibition of cell proliferation of human U87MG cells assessed as time required for cell doubling by measuring mean fluorescence intensity at 10 uM incubated for 48 hrs in presence of 50 uM H2O2 by CFSE staining based FACS method; type: functional; details: U-87MG ATCC
[8] = tested on: HeLa; experiment: Induction of apoptosis in human HeLa cells assessed as viable cells level at 10 uM incubated for 48 hrs in presence of 50 uM H2O2 by Annexin V-FITC and propidium iodide staining based flow cytometry (reference value: 93.7%); type: functional
[9] = tested on: U-87 MG; experiment: Induction of apoptosis in human U87MG cells assessed as necrotic cells level at 10 uM incubated for 48 hrs by Annexin V-FITC and propidium iodide staining based flow cytometry (reference value: 1.3%); type: functional, U-87MG ATCC
[10] = tested on: U-87 MG; experiment: Inhibition of cell proliferation of human U87MG cells assessed as time required for cell doubling by measuring mean fluorescence intensity at 10 uM incubated for 48 hrs by CFSE staining based FACS method; type: functional; details: U-87MG ATCC
[11] = tested on: U-87 MG; experiment: Induction of apoptosis in human U87MG cells assessed as early apoptotic cells level at 10 uM incubated for 48 hrs in presence of 50 uM H2O2 by Annexin V-FITC and propidium iodide staining based flow cytometry (reference value: 2%); type: functional, U-87MG ATCC
[12] = tested on: U-87 MG; experiment: Induction of apoptosis in human U87MG cells assessed as late apoptotic cells level at 10 uM incubated for 48 hrs in presence of 50 uM H2O2 by Annexin V-FITC and propidium iodide staining based flow cytometry (reference value: 2.6%); type: functional, U-87MG ATCC
[13] = tested on: U-87 MG; experiment: Induction of apoptosis in human U87MG cells assessed as necrotic cells level at 10 uM incubated for 48 hrs in presence of 50 uM H2O2 by Annexin V-FITC and propidium iodide staining based flow cytometry (reference value: 1.3%); type: functional, U-87MG ATCC
[14] = tested on: U-87 MG; experiment: Induction of apoptosis in human U87MG cells assessed as early apoptotic cells level at 10 uM incubated for 48 hrs by Annexin V-FITC and propidium iodide staining based flow cytometry (reference value: 2%); type: functional, U-87MG ATCC
[15] = tested on: Nucleic Acid; experiment: Inhibition of microRNA-146 in human HeLa cells assessed as reduction in microRNA-21 expression at 10 uM incubated for 24 hrs by RT-qPCR method; type: cell-based
[16] = tested on: HeLa; experiment: Effect on universal miRNA biosynthesis pathway-related gene expression in human HeLa assessed as XPO5 gene expression at 10 uM incubated for 24 hrs by RT-qPCR method; type: cell-based
[17] = tested on: HeLa; experiment: Inhibition of cell proliferation of human HeLa cells assessed as induction of retardation of cell proliferation at 10 uM incubated for 48 hrs by CFSE staining based FACS method; type: functional
[18] = tested on: HeLa; experiment: Effect on universal miRNA biosynthesis pathway-related gene expression in human HeLa assessed as AGO2 gene expression at 10 uM incubated for 24 hrs by RT-qPCR method; type: cell-based
[19] = tested on: Nucleic Acid; experiment: Inhibition of microRNA-21 in human HeLa cells assessed as reduction in microRNA-21 expression at 2.5 to 20 uM incubated for 24 hrs by stem-loop RT-PCR method; type: cell-based
[20] = tested on: Nucleic Acid; experiment: Inhibition of microRNA-145 in human HeLa cells assessed as reduction in microRNA-21 expression at 10 uM incubated for 24 hrs by RT-qPCR method; type: cell-based
[21] = tested on: Nucleic Acid; experiment: Inhibition of microRNA-25 in human HeLa cells assessed as reduction in microRNA-21 expression at 10 uM incubated for 24 hrs by RT-qPCR method; type: cell-based
[22] = tested on: HeLa; experiment: Induction of apoptosis in human HeLa cells assessed as early apoptotic cells level at 10 uM incubated for 48 hrs by Annexin V-FITC and propidium iodide staining based flow cytometry (reference value: 2.9%); type: functional
[23] = tested on: U-87 MG; experiment: Induction of apoptosis in human U87MG cells assessed as viable cells level at 10 uM incubated for 48 hrs by Annexin V-FITC and propidium iodide staining based flow cytometry (reference value: 94.1%); type: functional, U-87MG ATCC
[24] = tested on: U-87 MG; experiment: Inhibition of cell proliferation of human U87MG cells assessed as induction of retardation of cell proliferation at 10 uM incubated for 48 hrs by CFSE staining based FACS method; type: functional; details: U-87MG ATCC
[25] = tested on: Nucleic Acid; experiment: Inhibition of microRNA-21 in human HeLa cells assessed as reduction in microRNA-21 expression at 10 uM incubated for 6 to 48 hrs by stem-loop RT-PCR method; type: cell-based
[26] = tested on: HeLa; experiment: Induction of apoptosis in human HeLa cells assessed as late apoptotic cells level at 10 uM incubated for 48 hrs in presence of 50 uM H2O2 by Annexin V-FITC and propidium iodide staining based flow cytometry (reference value: 2.2%); type: functional
[27] = tested on: Nucleic Acid; experiment: Inhibition of microRNA-148 in human HeLa cells assessed as reduction in microRNA-21 expression at 10 uM incubated for 24 hrs by RT-qPCR method; type: cell-based
[28] = tested on: Nucleic Acid; experiment: Inhibition of microRNA-152 in human HeLa cells assessed as reduction in microRNA-21 expression at 10 uM incubated for 24 hrs by RT-qPCR method; type: cell-based
[29] = tested on: HeLa; experiment: Effect on universal miRNA biosynthesis pathway-related gene expression in human HeLa assessed as DROSHA gene expression at 10 uM incubated for 24 hrs by RT-qPCR method; type: cell-based
[30] = tested on: HeLa; experiment: Induction of apoptosis in human HeLa cells assessed as necrotic cells level at 10 uM incubated for 48 hrs in presence of 50 uM H2O2 by Annexin V-FITC and propidium iodide staining based flow cytometry (reference value: 1.2%); type: functional
[31] = tested on: Nucleic Acid; experiment: Inhibition of microRNA-26 in human HeLa cells assessed as reduction in microRNA-21 expression at 10 uM incubated for 24 hrs by RT-qPCR method; type: cell-based
[32] = tested on: HeLa; experiment: Induction of apoptosis in human HeLa cells assessed as necrotic cells level at 10 uM incubated for 48 hrs by Annexin V-FITC and propidium iodide staining based flow cytometry (reference value: 1.2%); type: functional
[33] = tested on: HeLa; experiment: Inhibition of cell proliferation of human HeLa cells assessed as induction of retardation of cell proliferation at 10 uM incubated for 48 hrs in presence of 50 uM H2O2 by CFSE staining based FACS method; type: functional
[34] = tested on: HeLa; experiment: Induction of apoptosis in human HeLa cells assessed as late apoptotic cells level at 10 uM incubated for 48 hrs by Annexin V-FITC and propidium iodide staining based flow cytometry (reference value: 2.2%); type: functional
[35] = tested on: U-87 MG; experiment: Induction of apoptosis in human U87MG cells assessed as late apoptotic cells level at 10 uM incubated for 48 hrs by Annexin V-FITC and propidium iodide staining based flow cytometry (reference value: 2.6%); type: functional, U-87MG ATCC
[36] = tested on: U-87 MG; experiment: Induction of apoptosis in human U87MG cells assessed as viable cells level at 10 uM incubated for 48 hrs in presence of 50 uM H2O2 by Annexin V-FITC and propidium iodide staining based flow cytometry (reference value: 94.1%); type: functional, U-87MG ATCC
[37] = tested on: Nucleic Acid; experiment: Inhibition of microRNA-126 in human HeLa cells assessed as reduction in microRNA-21 expression at 10 uM incubated for 24 hrs by RT-qPCR method; type: cell-based
[38] = tested on: HeLa; experiment: Induction of apoptosis in human HeLa cells assessed as early apoptotic cells level at 10 uM incubated for 48 hrs in presence of 50 uM H2O2 by Annexin V-FITC and propidium iodide staining based flow cytometry (reference value: 2.9%); type: functional
[39] = tested on: HeLa; experiment: Inhibition of let-7a miRNA in human HeLa cells assessed as reduction in microRNA-21 expression at 10 uM incubated for 24 hrs by RT-qPCR method; type: cell-based
[40] = tested on: HeLa; experiment: Effect on universal miRNA biosynthesis pathway-related gene expression in human HeLa assessed as TARBP2 gene expression at 10 uM incubated for 24 hrs by RT-qPCR method; type: ADME, cell-based
[41] = tested on: HeLa; experiment: Induction of apoptosis in human HeLa cells assessed as viable cells level at 10 uM incubated for 48 hrs by Annexin V-FITC and propidium iodide staining based flow cytometry (reference value: 93.7%); type: functional
[42] = tested on: U-87 MG; experiment: Inhibition of cell proliferation of human U87MG cells assessed as induction of retardation of cell proliferation at 10 uM incubated for 48 hrs in presence of 50 uM H2O2 by CFSE staining based FACS method; type: functional; details: U-87MG ATCC
[43] = tested on: HeLa; experiment: Effect on universal miRNA biosynthesis pathway-related gene expression in human HeLa assessed as DICER1 gene expression at 10 uM incubated for 24 hrs by RT-qPCR method; type: cell-based

For `C#CCNC(=O)c1ccc(NC(=O)c2ccc(OC)c(OCc3ccccc3)c2)cc1`, which inhibition [1] is on record?
The inhibition was “Active”.

Which results are given for `C#CCNC(=O)c1ccc(/N=N/c2ccccc2)cc1`?
inhibition [1]: Active; inhibition [2]: Active

With `C#CCNC(=O)c1ccc(NC(=O)c2cccnc2)cc1` as the compound, how does the inhibition [1] read?
Its inhibition is “Active”.

For `C#CCNC(=O)c1ccc(NC(=O)c2ccc(OC)cc2OC)cc1`, which inhibition [1] is on record?
The inhibition was “Active”.

Which inhibition [1] does the source give for `C#CCNC(=O)c1ccc(NC(=O)c2cccc(I)c2)cc1` here?
The inhibition was “Active”.

Which inhibition [1] does the source give for `C#CCNC(=O)c1ccc(NC(=O)c2cc(OC)ccc2OC)cc1` here?
The inhibition was “Active”.

How did the inhibition [3] turn out when `C#CCNC(=O)c1ccc(NC(=O)c2ccccc2Br)cc1` was run?
The inhibition was “inactive”.

And the Activity [4]?
Its Activity is “Non-toxic”.

And the inhibition [5]?
The inhibition was “inactive”.

And the inhibition [6]?
The inhibition was “inactive”.

And the inhibition [7]?
The inhibition was “Active”.

And the Activity [8]?
The Activity was 67.5%.

What about the Activity [9] of the same compound?
The Activity was 1.7%.

What about the inhibition [10] of the same compound?
The inhibition was “Active”.

What about the Activity [11] of the same compound?
The Activity was 3.9%.

What about the Activity [12] of the same compound?
Its Activity is 10.2%.

What about the Activity [13] of the same compound?
Its Activity is 3.5%.

What about the Activity [14] of the same compound?
Its Activity is 2.3%.

What about the inhibition [15] of the same compound?
Its inhibition is “inactive”.

And the Activity [16]?
The Activity was “Non-toxic”.

What about the inhibition [17] of the same compound?
The inhibition was “Active”.

And the Activity [18]?
The Activity was “Non-toxic”.

And the inhibition [19]?
The inhibition was “Active”.

And the inhibition [20]?
The inhibition was “inactive”.

And the inhibition [21]?
The inhibition was “inactive”.

And the Activity [22]?
Its Activity is 3.5%.

What about the Activity [23] of the same compound?
Its Activity is 91.9%.

What about the inhibition [24] of the same compound?
The inhibition was “Active”.

What about the inhibition [25] of the same compound?
The inhibition was “Active”.

What about the Activity [26] of the same compound?
Its Activity is 19.1%.

What about the inhibition [27] of the same compound?
Its inhibition is “inactive”.

And the inhibition [28]?
Its inhibition is “inactive”.

What about the Activity [29] of the same compound?
Its Activity is “Non-toxic”.

What about the Activity [30] of the same compound?
Its Activity is 4.5%.

And the inhibition [31]?
The inhibition was “inactive”.

And the Activity [32]?
Its Activity is 1.5%.

And the inhibition [33]?
Its inhibition is “Active”.

And the inhibition [1]?
The inhibition was “Active”.

What about the Activity [34] of the same compound?
The Activity was 3.4%.

What about the Activity [35] of the same compound?
The Activity was 4%.

What about the Activity [36] of the same compound?
The Activity was 82.4%.

And the inhibition [37]?
Its inhibition is “inactive”.

What about the Activity [38] of the same compound?
The Activity was 8.9%.

What about the inhibition [39] of the same compound?
Its inhibition is “inactive”.

And the Activity [40]?
The Activity was “Non-toxic”.

And the Activity [41]?
The Activity was 91.6%.

What about the inhibition [2] of the same compound?
Its inhibition is “Active”.

What about the inhibition [42] of the same compound?
The inhibition was “Active”.

What about the Activity [43] of the same compound?
The Activity was “Non-toxic”.
